Experimental data taken from patent publication US20010049097A1 (priority 1999, published 2001).

Experiments:
[1] = molecular target: T1, mutant T7 Y639F polymerase (Escherichia phage T7, UniProt P00573, Y639F); assay type: biochemical, T7 bacteriophage; details: for effect on nucleotide incorporation: reactions containing 4 rNTPs and no non-canonical nucleotides; for concentration found to increase rate of Y639RNAP-catalyzed transcript extension: more than one rNTP replaced by a non-canonical nucleoside triphosphate; for concentration in excess of which generally inhibitory of activity: reaction with 4 rNTPs and plasmid templates
T1 construct: made in house; host or cells: E. coli BL21 (protease-deficient strain), plasmid pDPT7
Experimental: In general, transcription reaction mixtures comprised about 40 mM Tris-HCl or 40 mM Tris-Acetate pH 8.0, 5 mM DTT, 5-15 mM MgCl2, 0.1 mCi/ml of alpha-^32P GTP, and various combinations of rNTPs and dNTPs at initial concentrations of 0.5 mM and 1.0 mM, respectively. The reaction mixtures included supercoiled or PvuI-linearized pT75 DNA (10^−8 M) as the template and mutant T7 Y639F polymerase (10^−7 M). Reactions were typically conducted in 50 microliter reaction volumes and incubated at 37° C. Aliquots were removed after 5, 10, and 20 minutes of incubation and the reactions were quenched by adding a solution containing 95% formamide, 20 mM EDTA, 0.01% xylene cyanol. The reaction products were resolved by electrophoresis on denaturing gels containing 6% acrylamide, 0.6% bis-acrylamide, 6 M urea, 1×TBE. The gel was analyzed using a Molecular Dynamics Phosphorimager to determine the rates of incorporation of radioactive GTP into specific transcripts.
To evaluate the effect of A-form stabilizing compounds on polyamines on transcript extension by a mutant T7 RNAP, the activity of the RNAP was evaluated using standard transcription conditions (15 mM MgCl2, 40 mM Tris-HCl pH 8.0, 1 mM EDTA, and 5 mM DTT), or standard transcription reaction conditions plus varying concentrations of ethanol, methanol, trifuoro acteic acid, cobalt hexamine, spermine, or spermidine.
In addition to evaluating A-form stabilizing compounds, we examined the effects of varying the concentration of Mg^2+ and Mn^2+, substituting acetate for chloride as the main reaction counteranion, adding 0.1% tween-20, and adding pyrophosphatase.
With reference to FIG. 1A, reactions in lanes labeled ‘M’ were carried out with wild type polymerase, 4 rNTPs, and either Pvu I- or Hind III-restricted pT75 to generate RNA markers ˜579 or ˜59 bases in length, respectively. Values below each gel lane give the relative rates of synthesis of runoff or long (>˜600 base) transcripts on linearized or supercoiled templates, respectively, normalized to a value of 100 for the 4 rNTP reactions. FIG. 1A compares the relative activities of Y639F in typical polymerase reaction conditions (15 mM MgCl2, 40 mM Tris-HCl pH 8.0, 1 mM EDTA, and 5 mM DTT) and in a modified reaction mixture (40 mM Tris-acetate pH 8.0, 5 mM DTT, 1 mM EDTA, 10 mM Mg-acetate, 0.5 mM MnCl2, 8 mM spermidine, and 1 U/μl pyrophosphatase) in reactions having various combinations of rNTPs and dNTPs with supercoiled or linearized templates.
With reference to FIG. 1B, transcripts were synthesized using Hind III-cut pT75 as the template with 2′-NH2- or 2′-F NTPs as indicated replacing the corresponding rNTPs in the reaction. Reactions were conducted with 8 mM or 0 mM spermidine, as indicated. FIG. 1B compares the activity of Y639F in the presence or absence of spermidine, in reactions with 4 rNTPs or different combinations of rNTPs and 2′-F- or 2′-NH2-NTPs.

Y639F T7RNAP = Y639F T7RNAP (Escherichia phage T7, UniProt P00573, Y639F); details: 42 bp template
Y639F T7RNAP, sequence (P00573 whole entry Y639F): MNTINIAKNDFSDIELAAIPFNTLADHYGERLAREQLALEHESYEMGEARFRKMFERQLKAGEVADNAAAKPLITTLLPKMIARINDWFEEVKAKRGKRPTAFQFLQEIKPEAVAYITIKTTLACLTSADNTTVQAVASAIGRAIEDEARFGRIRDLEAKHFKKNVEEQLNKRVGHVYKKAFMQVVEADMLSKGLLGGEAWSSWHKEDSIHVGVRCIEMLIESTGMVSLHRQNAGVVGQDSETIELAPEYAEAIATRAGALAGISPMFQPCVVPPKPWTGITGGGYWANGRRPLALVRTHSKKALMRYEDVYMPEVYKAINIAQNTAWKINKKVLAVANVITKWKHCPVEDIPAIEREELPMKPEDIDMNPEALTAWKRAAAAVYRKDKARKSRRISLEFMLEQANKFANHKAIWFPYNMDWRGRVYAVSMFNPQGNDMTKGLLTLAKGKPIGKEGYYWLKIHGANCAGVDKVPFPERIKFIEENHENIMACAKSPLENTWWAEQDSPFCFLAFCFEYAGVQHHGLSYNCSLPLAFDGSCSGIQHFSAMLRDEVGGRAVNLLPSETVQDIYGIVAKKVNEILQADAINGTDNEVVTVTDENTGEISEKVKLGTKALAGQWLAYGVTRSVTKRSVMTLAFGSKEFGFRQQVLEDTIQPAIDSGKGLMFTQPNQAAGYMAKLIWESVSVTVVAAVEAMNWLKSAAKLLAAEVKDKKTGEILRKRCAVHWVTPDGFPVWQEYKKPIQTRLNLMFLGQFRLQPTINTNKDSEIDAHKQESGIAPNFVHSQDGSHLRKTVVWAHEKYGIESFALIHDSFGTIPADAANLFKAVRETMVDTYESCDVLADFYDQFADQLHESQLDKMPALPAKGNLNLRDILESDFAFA
Experimental: A 42 base-pair synthetic template carrying a consensus T7 promoter was tested for its effect on Y639F T7RNAP activity by measuring the synthesis of 25 base runoff transcripts in reaction mixtures containing 10 mM MgCl2, 40 mM Tris pH 8.0, 1 mM EDTA, 5 mM DTT, 0.5 mM MnCl2 and either 3 dNTP+rGTP or 4 rNTP reactions (FIG. 2A). […] The polymerase and T7 promoter were included at concentrations of about 10^−7 M. Reaction products were subjected to electrophoresis on denaturing gels containing 20% acrylamide, 2% bis-acrylamide, 6 M urea, 1×TBE.

T1 sequence (P00573 whole entry Y639F): as above

CO[C@@H]1[C@H](O)[C@@H](COP(=O)(O)OP(=O)(O)OP(=O)(O)O)O[C@H]1n1cnc2c(=O)[nH]c(N)nc21 [2′-O-Me-GTP]
synthesis of 59 base runoff transcripts, lower than in reactions with 4 rNTPs ([1]; Hind-III linearized pT75, modified buffer, single rNTP replaced): eliminated synthesis of runoff transcripts altogether

N.N.N.N.N.N.[Cl-].[Cl-].[Cl-].[Co+3] [cobalt, cobalt hexamine]
effect on nucleotide incorporation [1]: inhibited

CCO [ethanol]
effect on nucleotide incorporation [1]: inhibited

CO [methanol]
effect on nucleotide incorporation [1]: inhibited

NCCCCNCCCN [spermidine]
concentration found to increase rate of Y639RNAP-catalyzed transcript extension [1]: at least 8 mM | concentration in excess of which generally inhibitory of activity [1]: > 10 mM | effect on nucleotide incorporation [1]: minimal effects at low concentrations and were inhibitory at high concentrations

NCCCNCCCCNCCCN [spermine]
concentration found to increase rate of Y639RNAP-catalyzed transcript extension [1]: at least 1.5 mM | concentration inhibiting transcription ([1]; plasmid pT75 template, all combinations of rNTPs and dNTPs): ≥ 4 mM | concentration in excess of which generally inhibitory of activity [1]: > 1 mM | effect on nucleotide incorporation [1]: minimal effects at low concentrations and were inhibitory at high concentrations | concentration optimum for stimulation of activity ([1]; reactions with non-canonical substrates (3 replaced), plasmid templates): 1 to 2 mM | runoff synthesis relative to 8 mM spermidine (Y639F T7RNAP; 1.6 mM spermine, 3 dNTPs): 2 fold | concentrations shown to be stimulatory (Y639F T7RNAP; reactions with 3 dNTPs): up to 13 mM

O=C(O)C(F)(F)F [trifluoroacetic acid]
effect on nucleotide incorporation [1]: inhibited
